The values that follow come from patent US7731992B2, “Method of inhibiting aromatase with specific dietary supplements” (Triarco Industries, Inc., priority 2003, dated 2010).

“And” between values parts separate entries of the source, which are not always exact repeats. Equal entries are not always repeated. Where two headings read alike, the source gives them in different places.

One series has as its target T1, human aromatase (CYP19) (Homo sapiens, UniProt P11511).
T1 construct: purchased Gentest P260; host or cells: baculovirus-infected insect cells (microsomes)
T1 sequence (P11511 1-503): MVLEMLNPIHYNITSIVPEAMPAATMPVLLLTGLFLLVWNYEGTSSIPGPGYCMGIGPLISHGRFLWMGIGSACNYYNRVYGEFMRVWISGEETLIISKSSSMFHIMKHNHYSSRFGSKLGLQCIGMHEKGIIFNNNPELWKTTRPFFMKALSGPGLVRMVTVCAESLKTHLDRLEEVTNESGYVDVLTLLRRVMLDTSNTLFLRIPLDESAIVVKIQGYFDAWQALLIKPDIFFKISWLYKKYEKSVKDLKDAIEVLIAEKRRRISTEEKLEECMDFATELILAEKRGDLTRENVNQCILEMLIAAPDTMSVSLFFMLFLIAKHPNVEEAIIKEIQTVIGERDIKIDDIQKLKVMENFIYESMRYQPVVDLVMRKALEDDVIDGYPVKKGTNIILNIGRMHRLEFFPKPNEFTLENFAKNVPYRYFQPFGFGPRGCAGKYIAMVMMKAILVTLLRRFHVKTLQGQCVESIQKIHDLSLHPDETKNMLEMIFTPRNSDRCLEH
The experiment in a line: Inhibition of CYP19-catalyzed dealkylation of DBF (fluorescence, 96 well plates). The format is biochemical.

The format of series [1] is physicochemical. On the procedure: The test solutions were prepared by adding the test substances to separate aliquots of dimethyl sulfoxide (DMSO). The target concentration of each test substance was 50 mg/ml. […] Mild heat and sonication were applied to aid in obtaining solutions of the other substances at the desired concentration. The black cohosh powder and echinacea were also centrifuged prior to the use of the supernatant in the assay to sediment any particulate matter present in the solutions.
None were successful. […] Insoluble material that would not sediment when centrifuged was still present at 2 mg/ml, forming a thin, whitish layer on the surface of the solution. This particulate material was avoided when sampling the sterol solution for the assay.

Description for human aromatase (CYP19): The inhibition of aromatase activity was measured in 96 well plates with cDNA-derived enzymes in microsomes prepared from baculovirus-infected insect cells. Dibenzylfluorescien (DBF) was used as a reporter substrate for the activity of the aromatase enzyme.
In the inhibition study, the 50 percent inhibitory concentration (IC50) for each substance was determined with the enzyme. A single concentration of DBF, below the apparent Km, and multiple test substance concentrations, separated by approximately ½ log, were tested in duplicate. Metabolism of the model substrate was assayed by the production of fluorescein metabolite, which was detected and measured using fluorescence.
The amount of solvent during the assay incubations was the same for all test substance concentrations.
As noted above, the assay was conducted in 96 well microplates. Initially, solutions of the substrate in acetonitrite at a concentration equal to the km were prepared. The inhibition of the CYP19-catalyzed dealkylation of DBF was determined, using 4-hydroxyandrostenedione, a known inhibitor of CYP19, as a positive control, and sulfaphenazone, as a negative control. The final concentration of CYP19 (Gentest catalog number P260) was 0.4 pmol/well, and the final concentration of microsomal protein was normalized to 0.25 mg/ml by the addition of the insect cell control protein. The final concentration of substrate was 0.2 μM, and the final concentration of the potassium phosphate buffer was 50 μM. The incubation time was 30 minutes.
A row of 12 wells was used in each test, and each test of a test substance/substrate combination was duplicated in a second row. In each test, wells 1 to 8 contained serial 1:3 dilutions of the inhibitors in which the maximum concentration of phytosterols was 10 μg/ml, and that of the other test substances was 250 μg/ml, assuming complete solubilization at the desired concentrations, i.e., 2 mg/ml for the phytosterols and 50 mg/ml for the other test substances. Wells 9 and 10 contained no inhibitor, and wells 11 and 12 were blanks in which stop solution was added before the enzyme to test for background fluorescence.
The plates were then warmed to 37° C., and incubation was initiated by the addition of the pre-warmed enzyme, additional insect cell control protein in an amount sufficient to provide the desired concentration, and substrate. The final cofactor concentrations were 1.3 μM NADP, 3.3 μM glucose-6-phosphate, and 0.4 U/ml glucose-6-phosphate dehydrogenase. The incubation reactions were stopped after 30 minutes by the addition of 0.075 ml of 2 N NaOH, and fluorescence was measured for each well using a FLUOstar model 403 plate scanner after a post-stop incubation period of about 4 hours. The DBF metabolite fluorescein was measured using an excitation wavelength of about 485 nm and an emission wavelength of about 538 nm.

For the compound `C[C@]12CCC(=O)C(O)=C1CC[C@@H]1[C@@H]2CC[C@]2(C)C(=O)CC[C@@H]12` [4-Hydroxandrostendione, 4-hydroxyandrostenedione, reference compound], the IC50 against human aromatase (CYP19) was determined as 11 nM.
In the case of `Nc1ccc(S(=O)(=O)Nc2ccnn2-c2ccccc2)cc1` [Sulfaphenazole, reference compound], the IC50 at human aromatase (CYP19) (positive and negative control, DBF 0.2 μM, 30 min, duplicate determinations, read-out: IC50 CYP19/DBF (controls)) is more than 10000 nM.
With Astaxanthin, the “IC50 CYP19/DBF” value on human aromatase (CYP19) (cDNA-derived enzyme in microsomes from baculovirus-infected insect cells, DBF 0.2 μM, 30 min, duplicate determinations, concentration assumes complete solubilization) is 67 µg/mL and 66 µg/mL. Also, the “Inhibition of aromatase activity (in words)” value at human aromatase (CYP19) (summary statement on Table 2) is “most significant inhibition”. Moreover, the “Solubility in DMSO (in words)” value in series [1] is on record as “dissolve completely”.
Take Phytosterols: the “Solubility in DMSO (in words)” value in series [1] is “little or no solubility in DMSO”.
